Test results taken from PubChem BioAssay (NCI).
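Method: 48-hour compound exposure of cells in 96-well plates, five concentrations, linear interpolation of endpoints. Here, GI50 denotes the concentration required for 50% inhibition of growth. TGI: concentration producing complete growth inhibition.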

Tests used:
Test in all cases: NCI tumour cell line growth inhibition, 48 h
786-0 renal = tested on: 786-0 renal
A498 renal = tested on: A498 renal
A549 NSCLC = tested on: A549 NSCLC
ACHN renal = tested on: ACHN renal
BT-549 breast = tested on: BT-549 breast
CAKI-1 renal = tested on: CAKI-1 renal
CCRF-CEM leukemia = tested on: CCRF-CEM leukemia
DU-145 prostate = tested on: DU-145 prostate
EKVX NSCLC = tested on: EKVX NSCLC
HCC-2998 colon = tested on: HCC-2998 colon
HCT-116 colon = tested on: HCT-116 colon
HCT-15 colon = tested on: HCT-15 colon
HL-60(TB) leukemia = tested on: HL-60(TB) leukemia
HOP-62 NSCLC = tested on: HOP-62 NSCLC
HOP-92 NSCLC = tested on: HOP-92 NSCLC
HS 578T breast = tested on: HS 578T breast
HT29 colon = tested on: HT29 colon
IGROV1 ovarian = tested on: IGROV1 ovarian
K-562 leukemia = tested on: K-562 leukemia
KM12 colon = tested on: KM12 colon
LOX IMVI melanoma = tested on: LOX IMVI melanoma
M14 melanoma = tested on: M14 melanoma
MALME-3M melanoma = tested on: MALME-3M melanoma
MCF7 breast = tested on: MCF7 breast
MDA-MB-231 breast = tested on: MDA-MB-231 breast
MDA-MB-435 = tested on: MDA-MB-435
MOLT-4 leukemia = tested on: MOLT-4 leukemia
NCI-H226 lung = tested on: NCI-H226 lung
NCI-H23 lung = tested on: NCI-H23 lung
NCI-H460 lung = tested on: NCI-H460 lung
NCI-H522 lung = tested on: NCI-H522 lung
NCI/ADR-RES ovarian = tested on: NCI/ADR-RES ovarian
OVCAR-3 ovarian = tested on: OVCAR-3 ovarian
OVCAR-4 ovarian = tested on: OVCAR-4 ovarian
OVCAR-5 ovarian = tested on: OVCAR-5 ovarian
OVCAR-8 ovarian = tested on: OVCAR-8 ovarian
PC-3 prostate = tested on: PC-3 prostate
RPMI-8226 leukemia = tested on: RPMI-8226 leukemia
RXF 393 renal = tested on: RXF 393 renal
SF-268 CNS = tested on: SF-268 CNS
SF-295 CNS = tested on: SF-295 CNS
SF-539 CNS = tested on: SF-539 CNS
SK-MEL-2 melanoma = tested on: SK-MEL-2 melanoma
SK-MEL-28 melanoma = tested on: SK-MEL-28 melanoma
SK-MEL-5 melanoma = tested on: SK-MEL-5 melanoma
SK-OV-3 ovarian = tested on: SK-OV-3 ovarian
SN12C renal = tested on: SN12C renal
SNB-19 CNS = tested on: SNB-19 CNS
SNB-75 CNS = tested on: SNB-75 CNS
SW-620 colon = tested on: SW-620 colon
T-47D breast = tested on: T-47D breast
TK-10 renal = tested on: TK-10 renal
U251 CNS = tested on: U251 CNS
UACC-257 melanoma = tested on: UACC-257 melanoma
UACC-62 melanoma = tested on: UACC-62 melanoma
UO-31 renal = tested on: UO-31 renal

Structure (SMILES): Cc1nc2ccccc2c(/C=C/c2ccc(F)cc2)c1C(=O)/C=C/c1ccccc1
- GI50 (786-0 renal): 2.03 µM
- TGI (786-0 renal): 4.36 µM
- GI50 (A498 renal): 2.22 µM
- TGI (A498 renal): 4.62 µM
- GI50 (A549 NSCLC): 2.88 µM
- TGI (A549 NSCLC): 10.3 µM
- GI50 (ACHN renal): 1.98 µM
- TGI (ACHN renal): 4.65 µM
- GI50 (BT-549 breast): 2.98 µM
- TGI (BT-549 breast): 13.6 µM
- GI50 (CAKI-1 renal): 1.58 µM
- TGI (CAKI-1 renal): 3.83 µM
- GI50 (CCRF-CEM leukemia): 2.44 µM
- TGI (CCRF-CEM leukemia): > 100 µM
- GI50 (DU-145 prostate): 2.34 µM
- TGI (DU-145 prostate): 6.21 µM
- GI50 (EKVX NSCLC): 4.38 µM
- TGI (EKVX NSCLC): 43.5 µM
- GI50 (HCC-2998 colon): 1.76 µM
- TGI (HCC-2998 colon): 3.32 µM
- GI50 (HCT-116 colon): 1.25 µM
- TGI (HCT-116 colon): 3.66 µM
- GI50 (HCT-15 colon): 1.92 µM
- TGI (HCT-15 colon): 6.2 µM
- GI50 (HL-60(TB) leukemia): 2.55 µM
- TGI (HL-60(TB) leukemia): 6.93 µM
- GI50 (HOP-62 NSCLC): 1.91 µM
- TGI (HOP-62 NSCLC): 4.27 µM
- GI50 (HOP-92 NSCLC): 2.02 µM
- TGI (HOP-92 NSCLC): 31.5 µM
- GI50 (HS 578T breast): 5.15 µM
- TGI (HS 578T breast): > 100 µM
- GI50 (HT29 colon): 2.81 µM
- TGI (HT29 colon): > 100 µM
- GI50 (IGROV1 ovarian): 1.71 µM
- TGI (IGROV1 ovarian): 6.15 µM
- GI50 (K-562 leukemia): 2.44 µM
- TGI (K-562 leukemia): 8.24 µM
- GI50 (KM12 colon): 2.38 µM
- TGI (KM12 colon): 6.82 µM
- GI50 (LOX IMVI melanoma): 1.69 µM
- TGI (LOX IMVI melanoma): 3.11 µM
- GI50 (M14 melanoma): 2.87 µM
- TGI (M14 melanoma): 9.26 µM
- GI50 (MALME-3M melanoma): 2.18 µM
- TGI (MALME-3M melanoma): 5.03 µM
- GI50 (MCF7 breast): 2.08 µM
- TGI (MCF7 breast): > 100 µM
- GI50 (MDA-MB-231 breast): 2.24 µM
- TGI (MDA-MB-231 breast): 6.33 µM
- GI50 (MDA-MB-435): 2.94 µM
- TGI (MDA-MB-435): 12.2 µM
- GI50 (MOLT-4 leukemia): 1.74 µM
- TGI (MOLT-4 leukemia): 6.57 µM
- GI50 (NCI-H226 lung): 1.85 µM
- TGI (NCI-H226 lung): 4.16 µM
- GI50 (NCI-H23 lung): 1.99 µM
- TGI (NCI-H23 lung): 5.43 µM
- GI50 (NCI-H460 lung): 1.79 µM
- TGI (NCI-H460 lung): 3.71 µM
- GI50 (NCI-H522 lung): 2 µM
- TGI (NCI-H522 lung): 5.79 µM
- GI50 (NCI/ADR-RES ovarian): 2.61 µM
- TGI (NCI/ADR-RES ovarian): 7.48 µM
- GI50 (OVCAR-3 ovarian): 1.57 µM
- TGI (OVCAR-3 ovarian): 3.12 µM
- GI50 (OVCAR-4 ovarian): 3.66 µM
- TGI (OVCAR-4 ovarian): > 100 µM
- GI50 (OVCAR-5 ovarian): 1.92 µM
- TGI (OVCAR-5 ovarian): 3.95 µM
- GI50 (OVCAR-8 ovarian): 2.62 µM
- TGI (OVCAR-8 ovarian): 7.75 µM
- GI50 (PC-3 prostate): 2.53 µM
- TGI (PC-3 prostate): 8.81 µM
- GI50 (RPMI-8226 leukemia): 1.87 µM
- TGI (RPMI-8226 leukemia): 5.95 µM
- GI50 (RXF 393 renal): 1.74 µM
- TGI (RXF 393 renal): 3.26 µM
- GI50 (SF-268 CNS): 3.45 µM
- TGI (SF-268 CNS): > 100 µM
- GI50 (SF-295 CNS): 4.72 µM
- TGI (SF-295 CNS): > 100 µM
- GI50 (SF-539 CNS): 1.81 µM
- TGI (SF-539 CNS): 3.57 µM
- GI50 (SK-MEL-2 melanoma): 3.22 µM
- TGI (SK-MEL-2 melanoma): 15.8 µM
- GI50 (SK-MEL-28 melanoma): 2.36 µM
- TGI (SK-MEL-28 melanoma): 5.67 µM
- GI50 (SK-MEL-5 melanoma): 2.11 µM
- TGI (SK-MEL-5 melanoma): 5.12 µM
- GI50 (SK-OV-3 ovarian): 4.72 µM
- TGI (SK-OV-3 ovarian): > 100 µM
- GI50 (SN12C renal): 2.25 µM
- TGI (SN12C renal): 6.07 µM
- GI50 (SNB-19 CNS): 1.88 µM
- TGI (SNB-19 CNS): 4.02 µM
- GI50 (SNB-75 CNS): 8.15 µM
- TGI (SNB-75 CNS): > 100 µM
- GI50 (SW-620 colon): 2.9 µM
- TGI (SW-620 colon): > 100 µM
- GI50 (T-47D breast): 1.55 µM
- TGI (T-47D breast): 9.87 µM
- GI50 (TK-10 renal): 4.05 µM
- TGI (TK-10 renal): > 100 µM
- GI50 (U251 CNS): 1.74 µM
- TGI (U251 CNS): 3.18 µM
- GI50 (UACC-257 melanoma): 2.82 µM
- TGI (UACC-257 melanoma): 8.65 µM
- GI50 (UACC-62 melanoma): 1.86 µM
- TGI (UACC-62 melanoma): 4.04 µM
- GI50 (UO-31 renal): 1.29 µM
- TGI (UO-31 renal): 2.67 µM
